Source: patent publication US20250346592A1 (Celgene Corporation, priority 2022, published 2025)

Molecular target: hPAD4 enzyme (Homo sapiens (Human), UniProt Q9UM07)
Test: RFMS2 assay (RapidFire mass spectrometry, TSTGGRQGSHH peptide substrate)
Format: biochemical
Conditions: 35 nM recombinant human PAD4, 500 μM TSTGGRQGSHH peptide, 30 minutes at room temperature; read-out: RFMS 2 IC50
Outline: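 IC50 derived from RapidFire LC-MS/MS (positive ESI MRM) of substrate versus product after a 30 min room-temperature reaction stopped with 10% formic acid. Reaction contained 35 nM human PAD4, 500 μM peptide, 2 mM CaCl2, 5 mM DTT at pH 7.4, and compounds diluted 3-fold from 20 μM.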

Chain of hPAD4 enzyme (Q9UM07 whole entry): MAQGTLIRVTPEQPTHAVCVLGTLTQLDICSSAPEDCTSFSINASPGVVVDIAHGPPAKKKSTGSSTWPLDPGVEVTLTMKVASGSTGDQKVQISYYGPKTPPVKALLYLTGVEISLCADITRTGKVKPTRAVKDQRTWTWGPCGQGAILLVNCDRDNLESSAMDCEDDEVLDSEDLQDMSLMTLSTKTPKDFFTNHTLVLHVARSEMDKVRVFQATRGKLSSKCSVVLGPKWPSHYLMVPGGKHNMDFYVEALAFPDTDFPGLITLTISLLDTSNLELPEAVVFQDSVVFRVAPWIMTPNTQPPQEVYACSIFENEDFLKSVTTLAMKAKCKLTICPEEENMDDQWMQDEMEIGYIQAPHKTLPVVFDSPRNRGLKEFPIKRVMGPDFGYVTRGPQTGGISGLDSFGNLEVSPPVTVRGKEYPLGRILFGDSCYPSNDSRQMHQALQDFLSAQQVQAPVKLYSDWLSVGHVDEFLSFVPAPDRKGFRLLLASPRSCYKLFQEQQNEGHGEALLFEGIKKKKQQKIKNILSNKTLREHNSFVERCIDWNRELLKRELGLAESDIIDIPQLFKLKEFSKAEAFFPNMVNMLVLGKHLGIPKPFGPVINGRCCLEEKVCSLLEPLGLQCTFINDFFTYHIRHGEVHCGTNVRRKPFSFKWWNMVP

Row | SMILES | IC50 [nM]
1 | C[C@@H](N)CN1CCc2cc3c(cc2C1=O)nc(-c1cc2ccc(C(F)(F)F)cc2n1CC1CC1)n3C [Example 20, (R)-6-(2-aminopropyl)-2-(1-(cyclopropylmethyl)-6-(trifluoromethyl)-1H-indol-2-yl)-1-methyl-1,6,7,8-tetrahydro-5H-imidazo[4,5-g]isoquinolin-5-one] | 101 to 500
2 | Cn1c(-c2cc3ccccc3n2CC2CC2)nc2cc3c(cc21)CCN(CC(N)CC(F)(F)F)C3=O (stereo not shown) [Example 7, 6-(2-amino-4,4,4-trifluorobutyl)-2-(1-(cyclopropylmethyl)-1H-indol-2-yl)-1-methyl-1,6,7,8-tetrahydro-5H-imidazo[4,5-g]isoquinolin-5-one] | > 1000
3 | Cn1c(-c2cc3cccc(OC[C@@H](O)C(F)(F)F)c3n2CC2CC2)nc2cc3c(cc21)CCN(C[C@H](N)CF)C3=O [Example 215, 6-((S)-2-amino-3-fluoropropyl)-2-(1-(cyclopropylmethyl)-7-((R)-3,3,3-trifluoro-2-hydroxypropoxy)-1H-indol-2-yl)-1-methyl-1,6,7,8-tetrahydro-5H-imidazo[4,5-g]isoquinolin-5-one] | 101 to 500
4 | COC(=O)NC[C@H](C)Oc1cccc2cc(-c3nc4cc5c(cc4n3C)CCN(C[C@H](N)CF)C5=O)n(CC3CC3)c12 [Example 202, methyl ((S)-2-((2-(6-((S)-2-amino-3-fluoropropyl)-1-methyl-5-oxo-5,6,7,8-tetrahydro-1H-imidazo[4,5-g]isoquinolin-2-yl)-1-(cyclopropylmethyl)-1H-indol-7-yl)oxy)propyl) carbamate] | 101 to 500
5 | Cc1nc(C)n(CCOc2cccc3cc(-c4nc5cc6c(cc5n4C)CCN(C[C@H](N)CF)C6=O)n(CC4CC4)c23)n1 [Example 162, (S)-6-(2-amino-3-fluoropropyl)-2-(1-(cyclopropyl-methyl)-7-(2-(3,5-dimethyl-1H-1,2,4-triazol-1-yl)ethoxy)-1H-indol-2-yl)-1-methyl-1,6,7,8-tetrahydro-5H-imidazo[4,5-g]isoquinolin-5-one] | 101 to 500
6 | Cc1nnc(COc2cccc3cc(-c4nc5cc6c(cc5n4C)CCN(C[C@H](N)CF)C6=O)n(CC4CC4)c23)o1 [Example 177, (S)-6-(2-amino-3-fluoropropyl)-2-(1-(cyclopropyl-methyl)-7-((5-methyl-1,3,4-oxadiazol-2-yl)methoxy)-1H-indol-2-yl)-1-methyl-1,6,7,8-tetrahydro-5H-imidazo[4,5-g]isoquinolin-5-one] | 101 to 500
7 | Cn1c(-c2cc3cccc(OCC4CCNC4=O)c3n2CC2CC2)nc2cc3c(cc21)CCN(C[C@H](N)CF)C3=O (stereo partly drawn) [Example 219, 6-((S)-2-amino-3-fluoropropyl)-2-(1-(cyclopropylmethyl)-7-((2-oxopyrrolidin-3-yl)methoxy)-1H-indol-2-yl)-1-methyl-1,6,7,8-tetrahydro-5H-imidazo[4,5-g]isoquinolin-5-one] | 101 to 500
8 | Cn1c(-c2cc3ccccc3n2CC2CC2)nc2cc3c(cc21)CCN(CC1CNCCN1)C3=O (stereo not shown) [Example 8, 2-(1-(cyclopropylmethyl)-1H-indol-2-yl)-1-methyl-6-(piperazin-2-ylmethyl)-1,6,7,8-tetrahydro-5H-imidazo[4,5-g]isoquinolin-5-one] | > 1000
9 | Cn1c(-c2cc3cccc(OCCc4cc[nH]n4)c3n2CC2CC2)nc2cc3c(cc21)CCN(C[C@H](N)CF)C3=O [Example 173, (S)-2-(7-(2-(1H-pyrazol-3-yl)ethoxy)-1-(cyclopropylmethyl)-1H-indol-2-yl)-6-(2-amino-3-fluoropropyl)-1-methyl-1,6,7,8-tetrahydro-5H-imidazo [4,5-g]isoquinolin-5-one] | 11 to 100
10 | CC(C)c1cccc2cc(-c3nc4cc5c(cc4n3C)CCN(C[C@@H](C)N)C5=O)n(CC3CC3)c12 [Example 19, (R)-6-(2-aminopropyl)-2-(1-(cyclopropylmethyl)-7-isopropyl-1H-indol-2-yl)-1-methyl-1,6,7,8-tetrahydro-5H-imidazo[4,5-g]isoquinolin-5-one] | 101 to 500
11 | Cn1c(-c2cc3cccc(OCCn4cccn4)c3n2CC2CC2)nc2cc3c(cc21)CCN(C[C@H](N)CF)C3=O [Example 155, (S)-2-(7-(2-(1H-pyrazol-1-yl)ethoxy)-1-(cyclopropyl-methyl)-1H-indol-2-yl)-6-(2-amino-3-fluoropropyl)-1-methyl-1,6,7,8-tetrahydro-5H-imidazo[4,5-g] isoquinolin-5-one] | 11 to 100
12 | C[C@@H](N)CN1CCc2cc3c(cc2C1=O)nc(-c1cc2ccccc2n1CC(C)(C)O)n3C [Example 92, (R)-6-(2-aminopropyl)-2-(1-(2-hydroxy-2-methylpropyl)-1H-indol-2-yl)-1-methyl-1,6,7,8-tetrahydro-5H-imidazo[4,5-g]isoquinolin-5-one] | > 1000
13 | C=CCn1c(-c2nc3cc4c(cc3n2C)CCN(C[C@@H](C)N)C4=O)cc2ccccc21 [Example 82, (R)-2-(1-allyl-1H-indol-2-yl)-6-(2-aminopropyl)-1-methyl-1,6,7,8-tetrahydro-5H-imidazo[4,5-g]isoquinolin-5-one] | 501 to 1000
14 | CCn1c(-c2nc3cc4c(cc3n2C)CCN(C[C@H](N)CF)C4=O)cc2cccc(OC)c21 [Example 107, (S)-6-(2-amino-3-fluoropropyl)-2-(1-ethyl-7-methoxy-1H-indol-2-yl)-1-methyl-1,6,7,8-tetrahydro-5H-imidazo[4,5-g]isoquinolin-5-one] | 501 to 1000
15 | Cn1c(-c2cc3cccc(OCC4COC(=O)N4)c3n2CC2CC2)nc2cc3c(cc21)CCN(C[C@H](N)CF)C3=O (stereo partly drawn) [Example 172, 4-(((2-(6-((S)-2-amino-3-fluoropropyl)-1-methyl-5-oxo-5,6,7,8-tetrahydro-1H-imidazo[4,5-g]isoquinolin-2-yl)-1-(cyclopropylmethyl)-1H-indol-7-yl)oxy)methyl)oxazolidin-2-one] | 11 to 100
16 | C[C@@H](N)CN1CCc2cc3c(cc2C1=O)nc(-c1cc2ccccc2n1CC12CC(C1)C2)n3C [Example 73, (R)-6-(2-aminopropyl)-2-(1-(bicyclo[1.1.1]pentan-1-ylmethyl)-1H-indol-2-yl)-1-methyl-1,6,7,8-tetrahydro-5H-imidazo[4,5-g]isoquinolin-5-one] | > 1000
17 | Cn1c(-c2cc3cccc(OCc4cnco4)c3n2CC2CC2)nc2cc3c(cc21)CCN(C[C@H](N)CF)C3=O [Example 166, (S)-6-(2-amino-3-fluoropropyl)-2-(1-(cyclopropyl-methyl)-7-(oxazol-5-ylmethoxy)-1H-indol-2-yl)-1-methyl-1,6,7,8-tetrahydro-5H-imidazo[4,5-g] isoquinolin-5-one] | 101 to 500

Next, values leading:

Row | IC50 [nM] | SMILES
18 | > 1000 | C[C@@H](N)CN1CCc2cc3c(cc2C1=O)nc(-c1cc2ccnc(Cl)c2n1CC1CC1)n3C [Example 22, (R)-6-(2-aminopropyl)-2-(7-chloro-1-(cyclopropylmethyl)-1H-pyrrolo[2,3-c]pyridin-2-yl)-1-methyl-1,6,7,8-tetrahydro-5H-imidazo[4,5-g]isoquinolin-5-one]
19 | > 1000 | CN(C)c1cccc2cc(-c3nc4cc5c(cc4n3C)CCN(C[C@H](N)CF)C5=O)n(CC3CC3)c12 [Example 69, (S)-6-(2-amino-3-fluoropropyl)-2-(1-(cyclopropylmethyl)-7-(dimethylamino)-1H-indol-2-yl)-1-methyl-1,6,7,8-tetrahydro-5H-imidazo[4,5-g]isoquinolin-5-one]
20 | > 1000 | C[C@@H](N)CN1CCc2cc3c(cc2C1=O)nc(-c1cc2ccc(=O)[nH]c2n1CC1CC1)n3C [Example 45, (R)-6-(2-aminopropyl)-2-(1-(cyclopropylmethyl)-6-oxo-6,7-dihydro-1H-pyrrolo[2,3-b]pyridin-2-yl)-1-methyl-1,6,7,8-tetrahydro-5H-imidazo[4,5-g]isoquinolin-5-one]
21 | 101 to 500 | COc1ccc2cc(-c3nc4cc5c(cc4n3C)CCN(C[C@H](N)CF)C5=O)n(CC3CC3)c2c1 [Example 50, (S)-6-(2-amino-3-fluoropropyl)-2-(1-(cyclopropylmethyl)-6-methoxy-1H-indol-2-yl)-1-methyl-1,6,7,8-tetrahydro-5H-imidazo[4,5-g]isoquinolin-5-one]
22 | 101 to 500 | Cn1c(-c2cc3ccc(C4CC4)nc3n2CC2CC2)nc2cc3c(cc21)CCN(C[C@H](N)CF)C3=O [Example 59, (S)-6-(2-amino-3-fluoropropyl)-2-(6-cyclopropyl-1-(cyclopropylmethyl)-1H-pyrrolo[2,3-b]pyridin-2-yl)-1-methyl-1,6,7,8-tetrahydro-5H-imidazo[4,5-g]isoquinolin-5-one]
23 | 101 to 500 | C[C@@H](N)CN1CCc2cc3c(cc2C1=O)nc(-c1cc2ccc(Cl)nc2n1CC1CC1)n3C [Example 43, (R)-6-(2-aminopropyl)-2-(6-chloro-1-(cyclopropylmethyl)-1H-pyrrolo[2,3-b]pyridin-2-yl)-1-methyl-1,6,7,8-tetrahydro-5H-imidazo[4,5-g]isoquinolin-5-one]
24 | 501 to 1000 | COCCn1c(-c2nc3cc4c(cc3n2C)CCN(C[C@H](N)CF)C4=O)cc2ccc(Cl)nc21 [Example 104, (S)-6-(2-amino-3-fluoropropyl)-2-(6-chloro-1-(2-methoxyethyl)-1H-pyrrolo[2,3-b]pyridin-2-yl)-1-methyl-1,6,7,8-tetrahydro-5H-imidazo[4,5-g]isoquinolin-5-one]
25 | 101 to 500 | Cn1c(-c2cc3ccc(Cl)nc3n2CC2CC2)nc2cc3c(cc21)CCN(C[C@H](N)CF)C3=O [Example 56, (S)-6-(2-amino-3-fluoropropyl)-2-(6-chloro-1-(cyclopropylmethyl)-1H-pyrrolo[2,3-b]pyridin-2-yl)-1-methyl-1,6,7,8-tetrahydro-5H-imidazo[4,5-g]isoquinolin-5-one]
